According to paper PMC6266789 (Viruses, 2018):

Tested on: NA of pH1N1 influenza virus recovered from lungs of IS mice
Assay type: biochemical, influenza A(H1N1)pdm09

CCOC(=O)C1=C[C@@H](OC(CC)CC)[C@H](NC(C)=O)[C@@H](N)C1 [Oseltamivir, oseltamivir]
oseltamivir resistance phenotype associated with H275Y by NAI assay: not detected
